Measurements published in a melting point compilation (Tetko et al.; mined from patent text by program, amines drawn as free bases though some values may be those of a salt).

SMILES	melting point
O=C(O)C(Cl)(Cl)CCCCCCCCCCc1ccccc1	157 to 159 °C
CCCCc1ncc(CCN(C)C(Cc2ccccc2)C(=O)O)n1Cc1ccccc1Cl (stereo unspecified)	59 to 61 °C
COc1ccc(OC)c(C(=O)Nc2ccc(N3CCOCC3)cc2C(C)=O)c1	172 to 174 °C
COC(=O)CCSC(SCCC(=O)OC)c1cccc(C=Cc2ccc3ccc(Cl)cc3n2)c1	53 °C
N#Cc1cnn2c1N(C(=O)CN1CCN(CC#CCN3CCCC3=O)CC1)CC=C2c1cccc(C(F)(F)F)c1	124 to 126 °C
CC(C)N1CCC(C(C(N)=O)(c2ccccc2)c2ccccc2)C1 (stereo unspecified)	110 to 112 °C
CN1C(=O)N(CC(COc2ccc(-c3ccc(Cl)cc3)cc2)N(O)C=O)C(=O)C1(C)C (stereo unspecified)	124 to 125 °C
NCCC(O)(c1ccc(-c2ccccc2)cc1)c1ccc(-c2ccccc2)cc1	176 to 178 °C
CC(=O)Oc1ccc(C(=O)O)cc1C(=O)c1ccccc1	162 to 163 °C
N#Cc1cc(C2=Nc3ccc(-c4ccc(F)cc4F)cc3NC(=O)C2)ccn1	250 to 253 °C
COc1cc2sc(-c3ccccn3)nc(=O)c2cc1OC	236 to 238 °C
C=CCOc1cc2c(cc1CC=C)N(CC=C(C)C)C(=O)CC2	86 to 88 °C
Cc1ccc(S(=O)(=O)Nc2ccc(C#N)cc2[N+](=O)[O-])cc1	150 to 152 °C
Cc1nc(Nc2c([N+](=O)[O-])cc([N+](=O)[O-])cc2C(F)(F)F)c(Cl)c(C)c1Cl	131 to 133 °C
CCCc1c(C(=O)C(C)C)c2ccc(C(N)=O)cc2n1Cc1ccccc1NC(C)=O	235 to 236 °C
CC(C)(C)OC(=O)Nc1cc(Cl)c(Cl)c(Cl)c1	120 °C
N#Cc1ncn2c(C(F)(F)F)cc(-c3ccncc3)nc12	254 °C
CN(c1nc(-c2cc3ccccc3[nH]c2=O)cs1)S(=O)(=O)c1cccc(F)c1	247 to 249 °C
Cc1ccc2c(=O)c3c(oc2c1)CCC(C#N)C3 (stereo unspecified)	176 to 178 °C
COC(=O)/C=C/c1ccc(OC)cc1N	149 °C
CC1CC(=O)NN=C1c1ccc2c(ccc(=O)n2C)c1 (stereo unspecified)	248 to 251 °C
CC(C)n1nc(-c2nc(-c3cn[nH]c3)c(N)nc2-c2ccccc2)ccc1=O	> 250 °C
O=c1[nH]c2ncc(Br)cc2o1	229 to 230 °C
Cc1cccc2c(=O)nc(-c3ccccn3)sc12	198 °C
CCC(=O)c1cc(OCc2ccccc2)c(OC)cc1[N+](=O)[O-]	120 to 123 °C
CSc1ncc2ccc(N)nc2n1	> 250 °C

SMILES	melting point
COC(=O)c1ccc(OCCCCC2Cc3c(c(OC)c(OC)c(OC)c3OC)C2)cc1	68 to 71 °C
O=C(Nc1ccc(-n2nc(C(F)(F)F)cc2C(F)(F)F)cc1)C1CCCO1 (stereo unspecified)	113 to 116 °C
CCOC(=O)C(=O)Nc1nc(C(C)C)cs1	54 to 57 °C
CCCCCCOc1ccc(C=C(C#N)c2cccnc2)cc1	67 to 68 °C
COC(=O)c1cc(Cl)ccc1-n1cnnc1C	86 to 88.5 °C
C[C@H](N)C(c1ccccc1)c1ccccc1	76 to 77 °C
Cn1ncc(C(N)=O)c1-c1ccco1	116 °C
CCC(=O)Oc1ccc(-c2nc(-c3ccc(N(C)C)cc3)c(C)[nH]2)cc1OC	244 to 246 °C
Cn1ccc2ncnc(Oc3ccc(NC(=O)Nc4cc(C(F)(F)F)ccc4F)c(Cl)c3)c21	193 to 197 °C
Cn1cc(-c2cc(-c3ccsc3)ccn2)n(-c2ccc(C(C)(C)C#N)cc2)c1=O	209 °C
CCOCc1ncccc1CN(CCn1ccc2oc(C)cc2c1=O)Cc1ccc2c(c1)N(C)C(=O)C(C)(C)C(=O)N2CC	104 to 106 °C
NS(=O)(=O)c1cc(CCNC(=O)/C=C/c2cccs2)ccc1OCCc1ccccc1	170 to 174 °C
NC(=O)Nc1nc2c(s1)-c1c(cnn1-c1ccccc1)CC2	321 to 325 °C
O=C(O)COc1ccc2c(-c3ccccc3Cl)noc2c1Cl	165 to 168 °C
CCc1cc2ccccn2c1	42 to 44 °C
O=C1N(Cc2ccc(-c3cccc(Cl)c3)o2)c2ccccc2C12COc1cc3c(cc12)OCO3 (stereo unspecified)	205 to 207 °C
CC(C)=C[C@@H](OC(=O)C=C(C)N[C@@H](C)c1cccc2ccccc12)C(Cl)(Cl)Cl	209 to 210 °C
CCOC(=O)c1ncn2c1CN(C)C(=O)c1c(C#N)cccc1-2	200 to 201 °C
CCc1c2s[nH]c(=O)c2c(=O)n2ccc(Cl)cc12	222 to 223 °C
CC(C)Cn1cnc2c(NN)nc3ccccc3c21	202 to 205 °C
C=CCOc1cc([N+](=O)[O-])ccc1OC	93 to 94 °C
CC(=O)SCC(Cc1ccc(F)cc1F)C(=O)Nc1cccc(C(=O)O)c1 (stereo unspecified)	164 to 166 °C
COc1ccc(S(=O)(=O)Nc2ccc(CCCC(=O)O)nc2)cc1	129 to 130 °C
Clc1cc(-c2ccccn2)ccn1	80 to 81 °C
COc1cc(OC)c(-c2ccc(C(=O)O)s2)cc1/C=C/C(=O)c1ccc(C(=O)O)cc1	> 260 °C
N#Cc1c(C#N)c(Oc2ccc3ccccc3c2)c(Oc2ccc3ccccc3c2)c(Oc2ccc3ccccc3c2)c1Oc1ccc2ccccc2c1	188 to 190 °C

SMILES	melting point
NC(=O)c1cc(C(c2c(F)ccc(F)c2F)S(=O)(=O)CCC(F)(F)F)c(Cl)cn1 (stereo unspecified)	237 to 239 °C
CC(C)(C)OC(=O)Nc1cc(C(F)(F)F)ccc1-c1cc(Oc2ccc3cccnc3c2)ncn1	159 to 162 °C
CCNC(=O)COc1cc2c(c(Cl)c1Cl)C(=O)C(C)(C(C)C)C2 (stereo unspecified)	146 °C
Cc1ncccc1Oc1ccc(NC(=O)C=Cc2ccccc2Cl)cn1	187 to 189 °C
CS(=O)(=O)c1ccc(-c2oc(CO)nc2-c2ccc(F)cc2)cc1	156 to 157 °C
CCOC(=O)NNC=Nc1nc(-c2ccc3c(c2)CCCC3)cs1	134 to 135 °C
COc1ccc2c(c1)c(CC(=O)OCCNC(=O)C1=CN(C)C=CC1)c(C)n2C(=O)c1ccc(Cl)cc1	60 to 65 °C
COCCOc1ccc(CCCO)c(Oc2ncc(C(F)(F)F)cc2Cl)c1	70 to 71 °C
CC(C)c1ccc(-c2nsc(-c3cccc(C(=O)O)c3)n2)cc1	166 to 168 °C
CS(=O)(=O)c1ccc(C2=C(c3ccc(Cl)cc3)CCC2)cc1	128 °C
O=C(Oc1cc(CBr)ccc1F)c1ccccc1	180 to 182 °C
CC1CC(=O)NN=C1c1ccc(-n2cnc3c2CCCC3)cc1 (stereo unspecified)	199 to 200 °C
CCOC(=O)C(C)(C)Oc1ccc(OCCn2c(=O)sc3cc(C(=O)c4cccc(Cl)c4)ccc32)cc1	125 to 126 °C
CN(c1cc(OCCCS(C)(=O)=O)cc2cc(C(=O)O)[nH]c12)S(=O)(=O)c1ccccn1	207 to 208 °C
CCN(C/C=C/C#CC(C)(C)C)Cc1cccc(N(C)Cc2cccc(-c3ccsc3)c2)c1	51 to 52 °C
CCOC(=O)CCc1c(O)ccc2c(=O)c3cc(C(=O)OC)ccc3oc12	> 215 °C
Cc1cc(C)c2ncn(/C=C/C(=O)O)c(=O)c2c1	284 to 288 °C
COC(=O)c1ccc(-c2ccc3c(c2)C=C(C(=O)Nc2ccc(CN(C)C4CCOCC4)cc2)CCC3)cc1	176 to 183 °C
COCc1noc(-c2ncn3c2c(=O)n(C(C)C)c2ccccc23)n1	195 to 196 °C
Cc1nc(O)n(COCc2ccccc2)c1Sc1ccccc1	147 to 148 °C
Cn1cc(-c2cc3cccnc3[nH]2)c2cc(C(=O)NCCO)ccc21	256 to 257 °C
O=C1c2cc(Cl)ccc2OCC1n1ccnc1 (stereo unspecified)	123 to 125 °C
CC1(C)CC(NC(=O)c2cc(Cl)cc(NC=O)c2O)CC(C)(C)C1	214 to 215 °C
Cc1cc(-n2cnn(Cc3ccc(S(C)(=O)=O)cc3)c2=O)sc1C(=O)NCc1cccnc1	208 to 210 °C
O=[N+]([O-])c1ccc(NC2CCCCC2)c([N+](=O)[O-])c1	153 °C
COC(=O)c1cc(N(C)C)c2cc(Cc3ccc(F)cc3)cnc2c1O	62 to 63 °C

SMILES	melting point
C=C(C)C(=O)OCCCc1ccc2c(c1)N(C(C)(C)C)N(O)N2	62 to 63.2 °C
CCn1cc(C(=O)O)c(=O)c2cc(F)c(N3CCNC(c4sc5ccc(Cl)cc5c4C)C3)cc21 (stereo unspecified)	300 to 305 °C
CN(C(=O)CN(C(=O)CNC(=O)Nc1cccc(O)c1)c1ccccc1)c1ccccc1	180 °C
O=S(=O)(Cc1cccs1)c1ncc(Br)cn1	124 to 126 °C
CCC(=O)OCc1cc2c3ccccc3[nH]c(=O)n2n1	184 to 186 °C
NC(=O)[C@H]1CCc2[nH]c3ccc(F)cc3c2C1	170 to 172 °C
N#CCSc1cc(F)cc(F)c1N	66 to 67 °C
COCCc1ccc(OCC(O)CO)cc1 (stereo unspecified)	25 °C
OC(COc1cc(-c2ccccc2)on1)CN1CCOCC1 (stereo unspecified)	123 to 124 °C
O=C1c2ccccc2C(=O)N1CCNCCCO	94 to 95 °C
Cc1cc(-c2c(-c3ccc(F)cc3)ncn2CCCN2CCOCC2)ccn1	116 to 117 °C
CC(C(N)=O)c1ccc2c(c1)Oc1ncccc1CC2=O (stereo unspecified)	89 to 90 °C
CC(C)(C)C1=CCC(C(=O)O)CC1 (stereo unspecified)	141 to 143 °C
COCc1cnc2c(N)cc(C)cc2c1Cl	135 to 138 °C
CCCC(=O)c1c[nH]c(=O)[nH]1	268 to 270 °C
S=c1[nH]c(=S)c2[nH]cnc2[nH]1	196 to 200 °C
COc1ccc2c(c1)c(Cc1nc(-c3ccc(F)cc3)cs1)c(C)n2C(=O)c1ccc(Cl)cc1	172 to 174 °C
CC[C@H](C)[C@H](NC(=O)NCCC1CCCCC1)C(=O)N[C@H](CO)Cc1c[nH]c2ccccc12	182 to 184 °C
Cc1c(C(=O)O)ccc2c3ccccc3n(Cc3ccccc3)c12	215 to 216 °C
Cn1nncc1COc1nn2c(-c3ccccc3)nnc2cc1-c1ccccc1	190 to 193 °C
CC(C)(C)C1(O)CCN(C(=O)C2c3ccccc3CCc3ccccc32)CC1	189 to 190 °C
c1ccc2c(c1)ncc1nc(C3CCC3)[nH]c12	191 to 192 °C
COc1ccc(C#N)cc1-c1cc(-c2ccc(C#N)cc2[N+](=O)[O-])no1	264 to 266 °C
